Reference: ChEMBL document CHEMBL1641524, “Synthesis and SAR of novel CXCR4 antagonists that are potent inhibitors of T tropic (X4) HIV-1 replication” (Bioorg Med Chem Lett, 2011)

How the values were obtained:
[1] = system: Human immunodeficiency virus 1; test: Antiviral activity against X4 tropic HIV1 NL4.3 infected in human MT4 cells expressing CD4 and CXCR4 assessed as inhibition of virus-induced cytopathicity; assay type: functional, organism-based; conditions: Human immunodeficiency virus 1, NL4.3, MT4
[2] = Cytotoxicity against human MT4 cells expressing CD4 and CXCR4; assay type: cell-based
[3] = Half life in dog at 5 umol/kg, iv; assay type: ADME, organism-based, Canis lupus familiaris; conditions: in vivo
[4] = biological target: T1, C-X-C chemokine receptor type 4 (Homo sapiens, UniProt P61073); test: Displacement of [125I]SDF-1 from CXCR4 in human CEM-CCRF cells expressing CD4 by liquid scintillation counting; assay type: cell-based
[5] = (§1) Half life in rat at 10 umol/kg, iv; assay type: ADME, organism-based; conditions: in vivo, 10 umol/kg
[6] = Cmax in dog at 5 umol/kg, iv; assay type: ADME, organism-based, Canis lupus familiaris; parameters: dose 5 umol/kg, route intravenous; conditions: in vivo
[7] = Volume of distribution in dog at 5 umol/kg, iv; assay type: ADME, organism-based, Canis lupus familiaris; conditions: in vivo
[8] = system: Human immunodeficiency virus 1; test: Antiviral activity against X4 tropic HIV1 infected in human PBMC assessed as inhibition of virus-induced cytopathicity; assay type: functional, organism-based
[9] = Oral bioavailability in rat at 100 umol/kg; assay type: ADME, organism-based; conditions: in vivo
[10] = Oral bioavailability in dog at 12.5 umol/kg; assay type: ADME, organism-based, Canis lupus familiaris; conditions: in vivo
[11] = Volume of distribution in rat at 10 umol/kg, iv; assay type: ADME, organism-based; conditions: in vivo
[12] = system: Human immunodeficiency virus 1; test: Antiviral activity against X4 tropic HIV1 infected in human PBMC assessed as inhibition of virus-induced cytopathicity in presence of 1 mg/mL of alpha-acid glycoprotein; assay type: functional
[13] = (§2) AUC (0 to infinity) in rat at 10 umol/kg, iv; assay type: ADME, organism-based, Plasma; parameters: dose 10 umol/kg, time infinity, route intravenous; conditions: plasma, 10 umol/kg
[14] = Clearance in rat at 10 umol/kg, iv; assay type: ADME, organism-based; conditions: in vivo
[15] = system: Canis familiaris; test: (§3) AUC (0 to infinity) in dog at 5 umol/kg, iv; assay type: ADME, organism-based, Canis lupus familiaris, Plasma; parameters: dose 5 umol/kg, time infinity, route intravenous; conditions: in vivo
[16] = (§4) Cmax in rat at 10 umol/kg, iv; assay type: ADME, organism-based; parameters: dose 10 umol/kg, route intravenous; conditions: in vivo, 10 umol/kg
[17] = biological target: T1, C-X-C chemokine receptor type 4; test: Antagonist activity at CXCR4 in human CEM-CCRF cells expressing CD4 assessed as inhibition of SDF-1-induced Ca2+ signaling; assay type: functional, cell-based
[18] = system: Rattus norvegicus; test: as §1; assay type: ADME, organism-based; conditions: in vivo
[19] = system: Rattus norvegicus; test: as §2; assay type: ADME, organism-based, Plasma; parameters: dose 10 umol/kg, time infinity, route intravenous; conditions: in vivo
[20] = system: Rattus norvegicus; test: as §4; assay type: ADME, organism-based; parameters: dose 10 umol/kg, route intravenous; conditions: in vivo
[21] = Clearance in dog at 5 umol/kg, iv; assay type: ADME, organism-based, Canis lupus familiaris; conditions: in vivo
[22] = as §3; assay type: ADME, organism-based, Canis lupus familiaris, Plasma; parameters: dose 5 umol/kg, time infinity, route intravenous; conditions: plasma, 5 umol/kg

T1 sequence (P61073 whole entry): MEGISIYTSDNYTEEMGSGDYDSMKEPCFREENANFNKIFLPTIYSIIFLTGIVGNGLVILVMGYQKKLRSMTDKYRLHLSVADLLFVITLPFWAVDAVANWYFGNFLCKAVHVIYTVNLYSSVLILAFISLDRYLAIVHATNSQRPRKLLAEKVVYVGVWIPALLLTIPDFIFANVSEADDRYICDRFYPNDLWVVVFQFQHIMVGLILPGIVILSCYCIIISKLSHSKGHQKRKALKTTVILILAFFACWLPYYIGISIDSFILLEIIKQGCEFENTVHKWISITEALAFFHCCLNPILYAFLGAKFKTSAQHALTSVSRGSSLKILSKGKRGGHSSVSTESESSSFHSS

| SMILES | IC50 [1] [nM] | IC50 [17] [nM] | CC50 [2] [nM] | also measured |
| --- | --- | --- | --- | --- |
| NCc1[nH]cnc1CN(Cc1nc2ccccc2[nH]1)C1CCCc2cccnc21 (configuration not stated) | > 1160 |  | 5800 |  |
| NCc1cc(C(F)(F)F)ccc1CN(Cc1nc2ccccc2[nH]1)C1CCCc2cccnc21 (configuration not stated) | 104 | 51 | 26600 |  |
| NCc1cc(C(=O)O)ccc1CN(Cc1nc2ccccc2[nH]1)C1CCCc2cccnc21 (configuration not stated) | 69 | 126 | 137000 |  |
| NCc1sccc1CN(Cc1nc2ccccc2[nH]1)C1CCCc2cccnc21 (configuration not stated) | 14 | 60 | 31500 |  |
| COC(=O)c1ccc(CN(Cc2nc3ccccc3[nH]2)C2CCCc3cccnc32)c(CN)c1 (configuration not stated) | 105 | 39 | 42200 |  |
| NCc1cc(F)ccc1CN(Cc1nc2ccccc2[nH]1)C1CCCc2cccnc21 (configuration not stated) | 165 | 219 | 45600 |  |
| NCc1ncccc1CN(Cc1nc2ccccc2[nH]1)C1CCCc2cccnc21 (configuration not stated) | 21 | 21 | 150000 |  |
| NCc1ccc(CN(Cc2nc3ccccc3[nH]2)C2CCCc3cccnc32)s1 (configuration not stated) | 2480 |  | 28500 |  |
| NCc1nccnc1CN(Cc1nc2ccccc2[nH]1)C1CCCc2cccnc21 (configuration not stated) | > 1230 |  | 6100 |  |
| NCc1cc(CO)ccc1CN(Cc1nc2ccccc2[nH]1)C1CCCc2cccnc21 (configuration not stated) | 17 | 11 | 37500 |  |
| NCc1ccncc1CN(Cc1nc2ccccc2[nH]1)C1CCCc2cccnc21 (configuration not stated) | 124 | 160 | 128000 |  |
| NCc1nc(CN(Cc2nc3ccccc3[nH]2)C2CCCc3cccnc32)co1 (configuration not stated) | 20100 |  | 28500 |  |
| NCc1ccccc1CN(Cc1nc2ccccc2[nH]1)C1CCCc2cccnc21 (configuration not stated) |  | 28 |  |  |
| NCc1ccc(CN(Cc2nc3ccccc3[nH]2)C2CCCc3cccnc32)o1 (configuration not stated) | 3570 |  | 28500 |  |
| COCc1ccc(CN(Cc2nc3ccccc3[nH]2)C2CCCc3cccnc32)c(CN)c1 (configuration not stated) | 20 | 21 | 201000 |  |
| CO/N=C/c1ccc(CN(Cc2nc3ccccc3[nH]2)C2CCCc3cccnc32)c(CN)c1 (configuration not stated) | 22 | 5 | 26800 |  |
| NCc1ocnc1CN(Cc1nc2ccccc2[nH]1)C1CCCc2cccnc21 (configuration not stated) | 2830 |  | 32900 |  |
| COc1ccc(CN(Cc2nc3ccccc3[nH]2)C2CCCc3cccnc32)c(CN)c1 (configuration not stated) | 18 | 5 | 36500 |  |
| NCc1cscc1N(Cc1nc2ccccc2[nH]1)C1CCCc2cccnc21 (configuration not stated) | 103 | 13 | 32900 |  |

More lines, in order of falling IC50 [1], values ahead:

| IC50 [1] [nM] | IC50 [17] [nM] | SMILES | CC50 [2] [nM] | also measured |
| --- | --- | --- | --- | --- |
| 12 | 15 | NCc1cc(C(N)=O)ccc1CN(Cc1nc2ccccc2[nH]1)C1CCCc2cccnc21 (configuration not stated) | 120000 |  |
| 10.9 | 25 | NCc1cocc1N(Cc1nc2ccccc2[nH]1)C1CCCc2cccnc21 (configuration not stated) | 30200 |  |
| 8 | 21 | NCc1occc1CN(Cc1nc2ccccc2[nH]1)C1CCCc2cccnc21 (configuration not stated) | 50000 |  |
| 7.2 | 1.3 | NCc1ncoc1CN(Cc1nc2ccccc2[nH]1)C1CCCc2cccnc21 (configuration not stated) | 64500 |  |
| 4.2 |  | NCc1ncccc1CN(Cc1nc2ccccc2[nH]1)[C@H]1CCCc2cccnc21 |  | half-life [3]: 5.7 h; IC50 [4]: 19.8 nM; t1/2 [18]: 0.8 h; Cmax [6]: 4200 nM; Vd [7]: 2.6 L/kg; IC50 [8]: 9.9 nM; bioavailability [9]: 22%; bioavailability [10]: 84%; Vd [11]: 6.6 L/kg; fold change (FC) [12]: 24; AUC [19]: 5.4 µM·h; AUC [15]: 13.5 µM·h; Cmax [20]: 1200 nM |
| 2 | 10 | NCc1ccc(CN(Cc2nc3ccccc3[nH]2)C2CCCc3cccnc32)c(CN)c1 (configuration not stated) | 122000 |  |
| 0.99 |  | NCc1cscc1N(Cc1nc2ccccc2[nH]1)[C@H]1CCCc2cccnc21 |  | half-life [3]: 3.4 h; IC50 [4]: 88.9 nM; half-life [5]: 1.7 h; Cmax [6]: 2600 nM; Vd [7]: 2.2 L/kg; IC50 [8]: 2 nM; bioavailability [9]: 6%; bioavailability [10]: 9%; Vd [11]: 5.2 L/kg; fold change (FC) [12]: 28; AUC(0-inf) [13]: 3.7 µM·h; clearance [14]: 27.2 mL/min/kg; AUC [15]: 3.7 µM·h; Cmax [16]: 1400 nM |
| 0.4 | 12 | NCc1ccoc1CN(Cc1nc2ccccc2[nH]1)C1CCCc2cccnc21 (configuration not stated) | 28500 |  |
| 0.31 |  | NCc1cocc1N(Cc1nc2ccccc2[nH]1)[C@H]1CCCc2cccnc21 |  | half-life [3]: 2.7 h; IC50 [4]: 44.5 nM; half-life [5]: 2.1 h; Cmax [6]: 4700 nM; Vd [7]: 0.7 L/kg; IC50 [8]: 4.1 nM; bioavailability [9]: 17%; clearance [21]: 3.7 mL/min/kg; bioavailability [10]: 28%; Vd [11]: 3.6 L/kg; fold change (FC) [12]: 17; AUC(0-inf) [13]: 12.5 µM·h; clearance [14]: 23.3 mL/min/kg; AUC(0-inf) [22]: 16.4 µM·h; Cmax [16]: 3000 nM |
